The results in this text go back to patent US20260374766A1, “METHODS FOR TREATING CANCER” (Antares Therapeutics, Inc., priority 2022, published 2026).

As usually defined, the Kd is the concentration at which binding is half-saturated. The term AC50 denotes the concentration at which the activity in the assay is half-maximal. Usually Emax stands for the maximal effect, on the per cent scale that the assay sets. Broadly, the IC50 is the concentration that gives 50% inhibition. Low values mean greater potency, high ones weaker potency.

The target of experiment [1] is T1, p53 Y220C mutant protein (amino acid residues 94-293) (Homo sapiens, UniProt P04637, Y220C).
T1 construct: p53 Y220C mutant protein (amino acid residues 94-293)
The experiment is described as follows: Surface Plasmon Resonance (SPR) assay, Kd_kinetic. As to conditions: SPR; p53 Y220C; read-out: SPR P53 Y220C KD kinetic. It is filed as binding. An outline of the steps:
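Binding measured by SPR on a Biacore 8K in running buffer of 50 mM Tris pH 7.5, 100 mM NaCl, 1 mM DTT, 0.01% Brij35, 0.05% Tween-20, 1% DMSO.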

The target of experiment [2] is T1, p53 Y220C mutant protein (amino acid residues 94-293). The experiment is described as follows: Thermal Shift Assay (TSA), dTM. Conditions: p53 Y220C, read-out: TSA P53 Y220C dTM; for ΔTm at 10 µM: 10 uM compound; for ΔTm at 100 µM: 100 uM compound. The class given is binding. An outline of the steps:
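Recombinant p53 Y220C core (residues 94-293) at 5 μM was incubated with 10 μM or 100 μM compound for 3 hours at 20 °C in 20 mM HEPES pH7.4, 100 mM NaCl, 0.01% Pluronic F-127, 1% DMSO with 400-fold diluted Sypro Orange. Melting was followed from 30 °C to 50 °C at 0.03 °C/second, and TM came from a Boltzmann two-state fit.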

In the next experiment the target is p53 Y220C (Homo sapiens, UniProt P04637, Y220C). In words: Luciferase Reporter Assay (Luc), p53 response element, NClH1299 cells with inducible p53 Y220C. As to conditions: luciferase reporter, NClH1299 inducible p53 Y220C, 6 hour; for AC50: read-out: Luc P53 Y220C AC50. It is filed as cell-based. An outline of the steps: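 Luminescence readout (One-Glo, 5 min shaking at RT, read at once) after 6 h compound exposure; cells pre-induced 24 h with 0.5 ug/mL doxycycline, 5,000/well.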
On the technique in general: In a reporter assay the amount or activity of a reporter protein is the signal.

For the next experiment, the system named is NUGC3 p53 Y220C. The experiment is described as follows: Cell Proliferation Assay (CellTiter-Glo, CTG), NUGC3 p53 Y220C. It is filed as cell-based. Conditions: Homo sapiens, NUGC-3, 120 h, NUGC3 cells, 5 days, CellTiter-Glo. An outline of the steps: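 NClH1299 lines stably transduced with Tet-inducible p53 Y220C or R273H, plus NUGC3, were treated with compound for 5 days at 250-500 cells/well. IC50 derived from CellTiter-Glo luminescent signal after 10 min room-temperature incubation.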

In a further experiment the test system is H1299 p53 Y220C. In words: Cell Proliferation Assay (CellTiter-Glo, CTG), H1299 p53 Y220C (NClH1299-inducible p53 Y220C). The class given is cell-based. As to conditions: Homo sapiens, NCI-H1299, 120 h, NClH1299-inducible p53 Y220C cells, 5 days, CellTiter-Glo. An outline of the steps:
(§1)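 Cells seeded at 250-500 per well and exposed to compound for 5 days. Viability read by CellTiter-Glo luminescence after 10 min at room temperature; IC50 calculated. H1299 lines carry Tet-One inducible p53 mutant constructs introduced by lentiviral transduction.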
In general terms: Cellular ATP, detected with luciferase, serves as a proxy for viable cell number.

The test system of a further experiment is H1299 p53 R273H. In words: Cell Proliferation Assay (CellTiter-Glo, CTG), H1299 p53 R273H (NClH1299-inducible p53 R273H). The class given is cell-based. As to conditions: Homo sapiens, NCI-H1299, 120 h, NClH1299-inducible p53 R273H cells, 5 days, CellTiter-Glo. An outline of the steps: as §1

Regarding `CNC(=O)c1ccc(OC)c(NCC#Cc2nn3c(N[C@@H]4CCN(C)C[C@@H]4F)cccc3c2SC(F)(F)F)n1` [Example 234], the Kd in experiment [1] was below 0.01 µM. Further, the ΔTm at 10 µM in experiment [2] is at least 10 °C. Further, the AC50 on p53 Y220C was below 0.75 µM. Further, the Emax on p53 Y220C fell in the range of 80 to 90%. The half-inhibitory concentration (IC50) was below 0.75 µM in the experiment on NUGC3 p53 Y220C, below 0.75 µM with H1299 p53 Y220C and 8 to 10 µM in the experiment with H1299 p53 R273H.
For the molecule `CNC(=O)c1ccc(OC)c(NCC#Cc2nn3c(N[C@@H]4CCNC[C@@H]4F)cccc3c2SC(F)(F)F)c1` [Example 236], in experiment [1], the dissociation constant Kd is below 0.01 µM. Moreover, in experiment [2], the ΔTm at 10 µM was at least 10 °C. Besides, the ΔTm at 100 µM in experiment [2] was at least 10 °C. Also, the AC50 at p53 Y220C was below 0.75 µM. Besides, the maximum response (Emax) at p53 Y220C fell in the range of 80 to 90%. Moreover, the IC50 is below 0.75 µM with NUGC3 p53 Y220C, below 0.75 µM in the experiment on H1299 p53 Y220C and 5 to 8 µM in the experiment with H1299 p53 R273H.
In the case of `CNC(=O)c1ccc(OC)c(NCC#Cc2nn3c(N[C@@H]4CCNC[C@@H]4F)cccc3c2SC(F)(F)F)n1` [Example 237], the dissociation constant Kd in experiment [1] was below 0.01 µM. Further, the ΔTm at 10 µM in experiment [2] is at least 10 °C. Moreover, the AC50 on p53 Y220C is below 0.75 µM. The molecule also returned an Emax at p53 Y220C of 70 to 80%. Moreover, the half-maximal inhibitory concentration (IC50) in the experiment with NUGC3 p53 Y220C is below 0.75 µM; in the experiment on H1299 p53 Y220C it was below 0.75 µM; in the experiment on H1299 p53 R273H, 5 to 8 µM.
Regarding `COc1cc(S(C)(=O)=O)ccc1NCC#Cc1nn2c(N[C@@H]3CCNC[C@@H]3F)cccc2c1SC(F)(F)F` [Example 238], in experiment [1], the dissociation constant Kd is below 0.01 µM. Moreover, the ΔTm at 10 µM in experiment [2] was at least 10 °C. For the same molecule, at p53 Y220C, the concentration at half-maximal activity (AC50) was below 0.75 µM. This molecule also had a maximal effect (Emax) on p53 Y220C of 80 to 90%. Further, the IC50 is below 0.75 µM in the experiment with NUGC3 p53 Y220C, below 0.75 µM in the experiment on H1299 p53 Y220C and 5 to 8 µM in the experiment on H1299 p53 R273H.
For `CNC(=O)c1ccc(NCC#Cc2nc3c(N[C@@H]4CCN(C)C[C@@H]4F)cccn3c2SC(F)(F)F)c(C)c1` [Example 239], the equilibrium dissociation constant (Kd) in experiment [1] was below 0.01 µM. In experiment [2], the ΔTm at 10 µM is at least 10 °C and the ΔTm at 100 µM is at least 10 °C. In addition, on p53 Y220C, the AC50 was below 0.75 µM and the maximal effect (Emax) was above 90%. Besides, the half-maximal inhibitory concentration (IC50) in the experiment with NUGC3 p53 Y220C was below 0.75 µM. In the experiment on H1299 p53 Y220C, this molecule yielded an IC50 below 0.75 µM. The same molecule had an IC50 in the experiment on H1299 p53 R273H of 8 to 10 µM.
`CNC(=O)c1ccc(NCC#Cc2nc3c(NC4CCOCC4)cccn3c2SC(F)(F)F)c(OC)c1` [Example 241]: the dissociation constant Kd in experiment [1] lay in the range of 0.01 to 0.1 µM. In experiment [2], the ΔTm at 10 µM was in the range of 5 to 10 °C and the ΔTm at 100 µM is at least 10 °C. For the same molecule, at p53 Y220C, the AC50 is below 0.75 µM and the maximum response (Emax) lay in the range of 80 to 90%. Also, the concentration for half-maximal inhibition (IC50) in the experiment on NUGC3 p53 Y220C is below 0.75 µM. In addition, in the experiment on H1299 p53 Y220C, the concentration for half-maximal inhibition (IC50) was below 0.75 µM. Moreover, the IC50 in the experiment on H1299 p53 R273H lay in the range of 5 to 8 µM.
Consider `CNC(=O)c1ccc(NCC#Cc2nc3c(N[C@@H]4CCN(C)C4)cccn3c2SC(F)(F)F)c(OC)c1` [Example 242], for which the Kd in experiment [1] was below 0.01 µM. In experiment [2], the ΔTm at 10 µM is 5 to 10 °C and the ΔTm at 100 µM is at least 10 °C. Further, at p53 Y220C, the AC50 lay in the range of 0.75 to 1.5 µM and the Emax fell in the range of 80 to 90%. Also, the IC50 in the experiment with NUGC3 p53 Y220C is below 0.75 µM. In addition, the IC50 in the experiment with H1299 p53 Y220C was below 0.75 µM. The molecule further returned a 50% inhibitory concentration (IC50) with H1299 p53 R273H of 5 to 8 µM.
`CNC(=O)c1ccc(NCC#Cc2nc3c(N[C@H]4CCN(C)C4)cccn3c2SC(F)(F)F)c(OC)c1` [Example 243]: the dissociation constant Kd in experiment [1] was below 0.01 µM. In experiment [2], the ΔTm at 10 µM lay within 5 to 10 °C and the ΔTm at 100 µM was at least 10 °C. For the same molecule, on p53 Y220C, the AC50 was 1.5 to 3 µM and the maximal response (Emax) lay within 70 to 80%. The same molecule returned an IC50 with NUGC3 p53 Y220C of 0.75 to 1.5 µM. The IC50 with H1299 p53 Y220C was in the range of 0.75 to 1.5 µM. The molecule also yielded an IC50 in the experiment on H1299 p53 R273H of at least 10 µM.
